# Experimental data from patent US10583173B2, “Methods of treating or preventing pruritis by blocking natriuretic polypeptide b” (priority 2013, dated 2020).
# Where no end group is shown, it is not given here.
# Columns and labels:
# Format in all cases: in vivo, mouse
# mice [1] = experiment: Scratching after intradermal injection of pruritogens; settings: control (wild-type) animals; doses of Table 1
# Procedure: (§1) Itch inducing substances (see Table 1) were injected intradermally into the shoulder of mice and numbers of scratching bouts assessed over 30 minutes. […] Table 1 also indicates the receptors or mechanisms believed to be activated by the various compounds in the itch response pathway.
# Intradermal injections were performed. The number of scratching bouts for substances that directly activate pruriceptors was recorded. The number of scratching bouts after injection with compound 48/80, which causes itch via an indirect route (McNeil et al., Neuroscience Bulletin, 28:100 (2012)), was also recorded. All of these agents (Table 1) reliably triggered multiple bouts of scratching in control animals (FIG. 1D), but Nppb^−/− mice were almost completely insensitive to the full range of pruritic substances tested (FIG. 1D).
# [2] = system: neurons in the dorsal root ganglion (DRG) and superficial dorsal horn (sDH); experiment: Immediate early gene induction (Egr1 in DRG, cFos in sDH) by ISH
# Procedure: To gain additional evidence that systemic Nppb activates a central itch pathway, the pattern of cellular activation of neurons in the dorsal root ganglion (DRG) and superficial dorsal horn (sDH) was compared by analyzing induction of immediate early gene expression. The skin was stimulated by pruritogen and injections of noxious compounds and the robust induction of immediate early genes, Egr1 and cFos (in the DRG and sDH respectively) was evaluated. Intradermal injection of chloroquine was utilized to excite MrgprA3 peripheral DRG neurons. […] The number of positive Egr-1-positive cells correlated well with the previously reported numbers of MrgprA3-expressing receptor neurons in DRG. […] Therefore, the initial and later cellular stages of the pruriceptive neural pathway could be reliably monitored biochemically and anatomically and itch signaling could be distinguished from that elicited by the noxious agent formalin.
# It was reasoned that if ivNppb was directly activating centrally, then induction of immediate early gene expression would be seen in sDH-neurons and not DRG neurons. […] As expected from the generalized scratching responses evoked by ivNppb, in both hemispheres of the spinal cord and along the entire length of the spinal cord, cFos-activated neurons could be detected. Furthermore, also consistent with the itch-behavioral result, the profile of cFos-activated neurons in the sDH was similar to that generated by epidermal injection of chloroquine.
# mice [3] = experiment: Scratching after intrathecal injection of GRP
# Description: (§2) All experiments using animals followed NIH guidelines and were approved by the National Institute of Dental and Craniofacial ACUC. The targeted JM8A3 ES-cell clone A04 with disruption of the Nppb gene was obtained from Mouse Biology Program (MBP), UC Davis and was used to generate chimeric mice. Chimeras were crossed with C57BL/6 mice and heterozygous offspring were mated to generate paired knockouts and controls. Transgenic (Tg) (gastrin releasing peptide (GRP)-enhanced green fluorescent protein (EGFP)) animals (Gong et al., Nature, 425:917 (2003)) were employed to localize expression of GRP. Male C57BL/6 (8-14 weeks) mice were used for selective toxin ablation and GRP-antagonist itch experiments. Ablation of Npra and GRP-receptor-expressing spinal cord interneurons was accomplished by intrathecal (segment L3/4) injection of Nppb-saporin (5 μg in 10 μl; Advanced targeting Systems, San Diego, Calif.) and GRP-saporin (2.5 μg) respectively. Experiments were initiated two weeks after toxin injection.
# (§3) Pretreatment with GRP antagonist deamino-Phe19,D-Ala24,D-Pro26-D-Phe27-GRP (Yegen et al., Regulatory Peptides, 61:175 (1996)) (1 nM in 10 μl) was used to block GRP-receptor.
# (§4) How Nppb induces this stereotyped scratch response was investigated. It was hypothesized that because this peptide is prominently expressed in somatosensory neurons, the most plausible explanation for its role would be if it acted as a specific itch-related neuromodulator (or neurotransmitter) in the spinal cord. […] Intrathecal injection of Nppb into Nppb^−/− mice also led to an equivalent phenotype (FIG. 1E). No significant differences in response between genotypes were found (Student's t-test). Loss of Nppb in sensory afferents was thus responsible for the pruriceptive deficits seen in mutant mice. Without being bound to a particular theory or mechanism, it is believed that Nppb-expression delineates the subset of somatosensory neurons that detect pruritic agents and that central release of Nppb from these neurons is necessary for the itch response.
# mice [4] = experiment: Scratching after lumbar intrathecal injection of Nppb
# Description: as §2, §3, §4
# Wild-type mice (C57BL/6) [5] = experiment: Scratching after intravenous administration of natriuretic peptides (ivNppb)
# Procedure: Elevated blood Nppb is found in kidney disalysis patients. Accordingly, the effect of elevated blood Nppb on itching in mice was evaluated. Wild-type mice (C57BL/6) were intravenously administered Nppb and were untreated or treated with GRP-antagonist or Nppb saporin. The bouts of scratching were counted.
# Nppb deficient or wild-type (C57BL/6) mice were intravenously (i.v.) administered Nppb, Nppa, or Nppc, and the bouts of scratches were measured.
# To mimic the high concentration of Nppb found in renal itch patients, mice were i.v. administered Nppb (via tail vein injection). […] Approximately ten minutes after administration of Nppb, mice began to persistently scratch their flank, face, hind quarters and abdomens. This behavior slowly diminished and almost completely ceased approximately 1 hour after injection. The induction of scratching was dose dependent, with a 1.2 μg/kg dose producing saturating behavioral responses. In all subsequent experiments, a dose of 1.2 μg/kg Nppb (abbreviated as “ivNppb”) was used, and bouts of scratching were counted over a period of 1 hour.
# Npra neurons themselves express GRP and are thought to release GRP which, in turn, activates GRPR-cells.
# Wild-type mice (C57BL/6) [6] = experiment: Histamine-induced scratching (bouts of scratching after intradermal histamine); settings: intradermal histamine 100 μg in 10 μl, scratching bouts over 30 minutes, vs histamine alone/untreated
# Description: as §2, §1, §3
# Wild-type mice (C57BL/6) were administered histamine alone, a combination of histamine and a GRP antagonist, or a combination of histamine and anantin. […] to another receptor in the itch pathway and was used as a control. Bouts of scratching were counted.
# [7] = lumbar 4-5 segment intrathecal injection
compound,measurement,setting,value
CCN(CC)CCCC(C)Nc1ccnc2cc(Cl)ccc12 (stereo not drawn) [chloroquine],scratching / itch-behavior after intradermal injection of pruritic agent,mice [1],triggered itch-behavior
same,Egr1 expression in DRG neurons,[2],induced Egr1 expression
same,cFos induction in superficial dorsal horn (sDH) neurons,[2],induced cFos expression
C=O [formalin],Egr1 expression in DRG neurons,[2],induced Egr-1 expression in a far larger number
same,cFos induction in superficial dorsal horn (sDH) neurons,[2],induced cFos expression
"GRP: gastrin releasing peptide (APVSTGAGGGTVLAKMYPRGSHWAVGHLM; ends and bridges not checked; UniProt Q8R1I2 24-52, looked up)",itch responses induced by intrathecal injection of the peptide,"mice [3]; GRP 1 nM in 10 μl, mutant and control animals",triggered itch responses
same,onset of pruriceptive response after intrathecal GRP,mice [3]; [7],~5 min
Nppb,scratching induced by intrathecal injection of the peptide,"mice [4]; Nppb 5 μg in 10 μl, lumbar 4-5 segment, control and Nppb−/− mice",induced repeated bouts of scratching
same,onset of pruriceptive response after intrathecal Nppb,mice [4]; [7],~5 min
same,scratching/itch induced by i.v. administration of the peptide,Wild-type mice (C57BL/6) [5]; i.v. tail vein,robust whole body scratching behavior
same,time after i.v. administration at which persistent scratching began,Wild-type mice (C57BL/6) [5]; i.v. tail vein,Approximately ten
same,time after i.v. injection at which scratching almost completely ceased,Wild-type mice (C57BL/6) [5]; i.v. tail vein,approximately 1 hour
same,dose producing saturating behavioral responses (scratching),"Wild-type mice (C57BL/6) [5]; i.v., dose dependent",1.2 µg/kg
same,Egr1 expression in DRG neurons,[2],did not induce expression of Egr1
same,cFos induction in superficial dorsal horn (sDH) neurons,[2],caused cFos induction
"Nppc: C-type natriuretic peptide, selective agonist for natriuretic peptide receptor Nprb (GLSKGCFGLKLDRIGSMSGLGC; ends and bridges not checked; cysteine pairing not given here; UniProt Q61839 105-126, looked up)",scratching/itch induced by i.v. administration of the peptide,"Wild-type mice (C57BL/6) [5]; i.v. (tail vein), listed as C-type natriuretic peptide",produced no observable reaction
same,scratching/itch induced by i.v. administration of the peptide,Wild-type mice (C57BL/6) [5]; i.v. tail vein,did not induce significant itch
anantin,"bouts of scratching after histamine injection, effect of treatment",Wild-type mice (C57BL/6) [6],attenuated histamine-induced itch
same,"bouts of scratching after histamine injection, effect of treatment",Wild-type mice (C57BL/6) [6]; listed as Anantin,statistically different
"deamino-Phe19,D-Ala24,D-Pro26-D-Phe27-GRP [GRP antagonist]","scratching induced by lumbar intrathecal injection of Nppb, effect of pretreatment","mice [4]; Nppb 5 μg in 10 μl intrathecal, vs untreated mice",strongly attenuated
same,"i.v. Nppb-induced itch, effect of pretreatment","Wild-type mice (C57BL/6) [5]; i.v. Nppb, bouts of scratching, vs untreated",blocked
same,"scratching induced by intrathecal GRP, effect of pretreatment","mice [3]; GRP 1 nM in 10 μl intrathecal, vs untreated mice",attenuated scratching
same,"bouts of scratching after histamine injection, effect of treatment",Wild-type mice (C57BL/6) [6],attenuated scratching
same,"bouts of scratching after histamine injection, effect of treatment",Wild-type mice (C57BL/6) [6]; listed as GRP-antagonist,statistically different
